The record followed here is PMC5681660, “Reduced hepatitis B and D viral entry using clinically applied drugs as novel inhibitors of the bile acid transporter NTCP” (Scientific Reports, 2017).

The target of this test is T1, human NTCP (Homo sapiens, UniProt Q14973).
T1 sequence (Q14973 1-349): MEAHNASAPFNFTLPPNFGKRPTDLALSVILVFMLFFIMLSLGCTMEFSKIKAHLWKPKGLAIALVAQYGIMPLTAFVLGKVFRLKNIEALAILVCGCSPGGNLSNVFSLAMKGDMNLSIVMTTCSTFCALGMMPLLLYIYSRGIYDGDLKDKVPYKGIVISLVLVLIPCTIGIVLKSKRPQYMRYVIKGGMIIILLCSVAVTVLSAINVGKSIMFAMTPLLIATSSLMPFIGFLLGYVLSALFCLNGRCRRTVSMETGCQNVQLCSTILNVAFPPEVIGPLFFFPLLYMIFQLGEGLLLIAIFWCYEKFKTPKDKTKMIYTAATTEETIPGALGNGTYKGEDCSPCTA
The test can be described thus: Screening taurocholate uptake assay (96-well, [14C]taurocholate, 10 µM drug). Conditions: for B-score functional assay: 10 µM drug.

The mark [1] stands for this setting: combined ranking of functional and binding screening assays.
The mark [2] stands for this setting: ranking over the functional and the binding screening assay.
The mark [3] stands for this setting: screening taurocholate uptake, B-score.

Counter-ions that a name gives are not always drawn.

On to `CNCC[C@@H](Oc1ccccc1C)c1ccccc1` [Tomoxetine hydrochloride], for which the Ranking score under setting [1] worked out at 493.908. This compound displayed a B-score functional assay (screening taurocholate uptake) of 3.106.
Compound `O=c1[nH]c2ccccc2n1C1CCN(CCCC(c2ccc(F)cc2)c2ccc(F)cc2)CC1` [Pimozide] returned a Ranking score under setting [2] of 234.734. The same compound showed a B-score functional assay (screening taurocholate uptake) of -2.417.
As to `Cc1cccc(C)c1NC(=O)CN1CCN(CCCC(c2ccc(F)cc2)c2ccc(F)cc2)CC1` [Lidoflazine], the Ranking score under setting [1] is 479.588. In addition, the B-score functional assay (screening taurocholate uptake) is listed as -0.817.
On to `CN[C@@H]1[C@H](O[C@H]2[C@H](O[C@H]3[C@H](O)[C@@H](O)[C@H](NC(=N)N)[C@@H](O)[C@@H]3NC(=N)N)O[C@@H](C)[C@]2(O)CO)O[C@@H](CO)[C@H](O)[C@H]1O` [Dihydrostreptomycin sulfate], for which the Ranking score under setting [2] turned out to be 143.478. The compound further gave a B-score functional assay (screening taurocholate uptake) of -2.479.
For the compound `CC(=O)N[C@@H](CC(C)C)C(=O)O` [N-Acetyl-L-leucine], under setting [1], the Ranking score was determined as 463.866. The B-score functional assay (screening taurocholate uptake) was -1.591.
The matching figures for `O=C(O)Cc1ccc(-c2ccccc2)cc1` [Felbinac]: 476.874 and -1.207.
Regarding `Cc1cccc(C)c1OCC(C)N` (centres unmarked) [Mexiletine hydrochloride], under setting [1], the Ranking score turned out to be 487.63. Besides, for the setting “screening taurocholate uptake”, the B-score functional assay is on record as -0.898.
The matching figures for `CCN(C)C(=O)Oc1cccc([C@H](C)N(C)C)c1` [Rivastigmine]: 642.937 and -0.006.
For `CC(=O)OCC(=O)[C@@]1(O)CC[C@H]2[C@@H]3CCC4=CC(=O)C=C[C@]4(C)[C@@]3(F)[C@@H](O)C[C@@]21C` [Isoflupredone acetate], in that order: 486.111 and 1.125.
For `Nc1c2ccccc2nc2ccccc12` [Aminacrine], in that order: 608.609 and -0.079.
`COC(=O)C1=C(C)NC(C)=C(C(=O)OC(C)C)C1c1cccc2nonc12` (centres unmarked) [Isradipine]: the Ranking score under setting [2] is 185.591. Moreover, under “screening taurocholate uptake”, the B-score functional assay is listed as -0.707.
As for `C[C@@H](O)[C@H]1C(=O)N2C(C(=O)O)=C(SCCN=CN)C[C@H]12` [Imipenem], the Ranking score under setting [1] stood at 1154.72. Further, under setting [3], the B-score functional assay is on record as 1.996.
For `CC(=O)[C@H]1CC[C@H]2[C@@H]3CCC4=CC(=O)CC[C@]4(C)[C@H]3CC[C@]12C` [Progesterone], the Ranking score under setting [1] is listed as 609.007. This compound also returned a B-score functional assay (screening taurocholate uptake) of 0.628.
Under setting [2], `CCOc1cc(CC(=O)N[C@@H](CC(C)C)c2ccccc2N2CCCCC2)ccc1C(=O)O` [Repaglinide] yielded a Ranking score of 233.103. For the same compound, for the setting “screening taurocholate uptake”, the B-score functional assay is listed as -2.984.
Consider `Cn1c(=O)c2[nH]cnc2n(C)c1=O` [Aminophylline], for which the Ranking score under setting [1] amounted to 601.379. Also, the B-score functional assay (screening taurocholate uptake) is given as -0.16.
With `COc1ccc(C(CN(C)C)C2(O)CCCCC2)cc1` (centres unmarked) [Venlafaxine], the Ranking score (combined ranking from functional and binding screening assays) worked out at 459.852. The compound also registered a B-score functional assay (screen, taurocholate uptake) of -0.102.
As to `C/C=C(\C)C(=O)O[C@H]1[C@H](OC(C)=O)[C@@]2(CO)C(CC1(C)C)C1=CC[C@@H]3[C@@]4(C)CC[C@H](O[C@@H]5O[C@H](C(=O)O)[C@@H](O[C@@H]6O[C@H](CO)[C@@H](O)[C@H](O)[C@H]6O)[C@H](O)[C@H]5O[C@@H]5O[C@H](CO)[C@@H](O)[C@H](O)[C@H]5O)[C@H](CO)C4CC[C@@]3(C)[C@@]1(C)C[C@H]2O` (stereo partly drawn) [Beta-Escin], the Ranking score under setting [2] was determined as 8.485. The B-score functional assay (screening taurocholate uptake) is listed as -8.059.
In the case of `NS(=O)(=O)c1cc(C(=O)O)c(NCc2ccco2)cc1Cl` [Furosemide], under setting [1], the Ranking score was 1165.28. Besides, under setting [3], the B-score functional assay was determined as 1.457.
Regarding `O=C(CCCN1CCC2(CC1)C(=O)NCN2c1ccccc1)c1ccc(F)cc1` [Spiperone], the Ranking score under setting [1] was determined as 571.731. The same compound returned a B-score functional assay (screening taurocholate uptake) of -0.689.
